Results on 23 compounds are retold here after US20250228865A1, “COMPOUNDS FOR ENHANCING READ THROUGH OF GENES CONTAINING PREMATURE TERMINATION CODONS AND METHODS FOR MAKING AND USING THE SAME” (Sanofi US Services Inc., priority 2022, published 2025).

The assay deals with recombinant human CFTR carrying the premature stop codon (PTC) mutation R1162X. The assay can be described thus: CFTR-PTC mutant translation readthrough, Nanoluc tagged CFTR luminescence (R1162X cell line). Type of assay: cell-based. Conditions: for CFTR R1162X ACTIVITY Fold 10 μM G-418: fold over 10 μM G-418, in combination with G418; for EC50: in combination with G418, 16HBE cells, read-out: CFTR R1162X ACTIVITY EC50. As to the method: 16HBE human bronchial epithelial cells (stably over-expressing recombinant human CFTR carrying the premature stop codon (PTC) mutation G542X or R1162X along with a Nanoluc tag incorporated into the CFTR channel within extracellular loop 4 in G542X cell line or C-terminus end in the R1162X cell line were seeded at 0.01×10^6 cells/well and grown in Minimal Essential Medium (MEM) as monolayers in 384 well plates and incubated at 37° C. with 5% CO2. Media was changed every other day until day of experiment. Agents to be evaluated were made up in separate 384 well, polypropylene plates at a 2X the final desired test concentration. Test agent 10-point concentration response curves were constructed using the Labcyte Echo 555 acoustic dispenser. Test agents were typically tested at a max final test concentrations of 50 μM with sequential 2-fold lower concentrations below this in the absence or presence of a fixed 10 μM concentration of the aminoglycoside G418 made up in MEM growth media (reduced Serum Media+HEPES Buffer+2.4 g/L Sodium Bicarbonate+L-Glutamine containing CFTR corrector VX-809 (3 μM)). Treatment with 10 μM G418 alone produced approximately 10% of the response observed with a maximally effective concentration of G418 (typically 125-250 μM). Test agent effects in presence of 10 μM G418 were compared to control wells on the plate containing a maximally effective concentration of G418 (typically 125-250 μM) made up in the same media. 25 ul of test agents/control solutions were transferred from the compound plate to the cell plate, which already contained 25 ul/well of cell plating media, using an Integra Viaflo 384. Cell plates were incubated with the compounds for 48 hours, at which time they were processed using Nanoluc luminescence Kit (Promega Nano-Glo Live Cell Assay System) to measure CFTR-PTC mutant translation readthrough. Luminescence was measured as follows. Cell plates were removed from the incubator and allowed to equilibrate to room temperature for 20 minutes. Media was removed from all wells and the plates were blotted to remove excess remaining volume. Nano-Glo Live Cell Substrate was diluted 1:20 in the appropriate amount of Nano-Glo LCS Dilution Buffer to accommodate the number of cell plates being tested. The substrate/dilution buffer mix was then diluted 1:3 with MEM media to make the appropriate volume for the number of plates being tested. The substrate/dilution buffer/OptiMEM mix was added across the Nanoluc testing cell plates and the plates were read for luminescence signal immediately. Test agent effects on CFTR translation readthrough was determined by normalizing any observed increase in luminescence induced by 48 hours pretreatment with test compound to the magnitude of luminescence increase produced by pretreatment with a maximally effective concentration of the reference readthrough enhancing agent G418 (125-250 μM).

Turning to `O=C1CN(c2ccc(OCc3c(C(F)(F)F)ccc(F)c3Cl)cn2)C(=O)N1`, the “CFTR R1162X ACTIVITY Fold 10 μM G-418” value is reported as “C′ (C′ = <5X)” and the 50% effective concentration (EC50) (commonly the midpoint of the concentration-response curve) is less than 1000 nM.

Turning to `O=C1CN(c2cnc(OCc3c(Cl)cccc3C(F)(F)F)cn2)C(=O)N1`, the “CFTR R1162X ACTIVITY Fold 10 μM G-418” value was “C′ (C′ = <5X)” and the EC50 was in the range of 1000 to 10000 nM.

As for `Cc1cccc(C(F)(F)F)c1COc1cnc(-n2ccc(C(N)=O)n2)nc1`, the “CFTR R1162X ACTIVITY Fold 10 μM G-418” value is “C′ (C′ = <5X)” and the concentration for a half-maximal effect (EC50) is less than 1000 nM.

As for `Cc1cccc(C(F)(F)F)c1COc1cnc(N2CCN(C)[C@@H](CN)C2)nc1`, the “CFTR R1162X ACTIVITY Fold 10 μM G-418” value was “C′ (C′ = <5X)” and the half-maximal effective concentration (EC50) was more than 10000 nM.

Take `CC(=O)N1CCN(c2ncc(OCc3c(Cl)cccc3C(F)(F)F)cn2)C[C@@H]1CN`: the “CFTR R1162X ACTIVITY Fold 10 μM G-418” value is “B′ (B′ = ≥5X to <10X)” and the concentration giving a half-maximal response (EC50) lay in the range of 1000 to 10000 nM.

For `O=C1OC(CO)CN1c1ncc(OCc2c(Cl)ccc(F)c2Cl)cn1` (stereo not shown), the “CFTR R1162X ACTIVITY Fold 10 μM G-418” value is on record as “C′ (C′ = <5X)” and the EC50 is 1000 to 10000 nM.

For `FC(F)(F)c1cccc(Cl)c1COc1cnc(N2CCn3c(nnc3C(F)(F)F)C2)nc1`, the “CFTR R1162X ACTIVITY Fold 10 μM G-418” value is “C′ (C′ = <5X)” and the 50% effective concentration (EC50) lay within 1000 to 10000 nM.

For the compound `Cc1c(F)ccc(C(F)(F)F)c1COc1ccc(-n2cnc(CO)n2)cc1`, the “CFTR R1162X ACTIVITY Fold 10 μM G-418” value was “C′ (C′ = <5X)” and the EC50 was less than 1000 nM.

Turning to `OCc1ncn(-c2ncc(CCc3c(Cl)cccc3Cl)cn2)n1`, the “CFTR R1162X ACTIVITY Fold 10 μM G-418” value was “C′ (C′ = <5X)” and the EC50 was in the range of 1000 to 10000 nM.

As for `OCc1ncn(-c2ncc(OCc3c(C(F)(F)F)ccc(F)c3Cl)cn2)n1`, the “CFTR R1162X ACTIVITY Fold 10 μM G-418” value is “A′ (A′ = ≥10X)” and the concentration for a half-maximal effect (EC50) was in the range of 1000 to 10000 nM.

`OCc1ncn(-c2ccc(OCc3c(C(F)(F)F)ccc(F)c3Cl)cn2)n1`: the “CFTR R1162X ACTIVITY Fold 10 μM G-418” value is “C′ (C′ = <5X)” and the concentration giving a half-maximal response (EC50) is less than 1000 nM.

Regarding `OCc1cn(-c2ncc(OCc3c(C(F)(F)F)ccc(F)c3Cl)cn2)cn1`, the “CFTR R1162X ACTIVITY Fold 10 μM G-418” value is “C′ (C′ = <5X)” and the EC50 was less than 1000 nM.

On to `[2H]C([2H])(O)c1ncn(-c2ncc(OC([2H])([2H])c3c(Cl)cccc3C(F)(F)F)cn2)n1`, for which the “CFTR R1162X ACTIVITY Fold 10 μM G-418” value was “C′ (C′ = <5X)” and the concentration for a half-maximal effect (EC50) was in the range of 1000 to 10000 nM.

With `OCc1ccn(-c2ncc(OCc3c(Cl)cccc3C(F)(F)F)cn2)n1`, the “CFTR R1162X ACTIVITY Fold 10 μM G-418” value is listed as “C′ (C′ = <5X)” and the concentration giving a half-maximal response (EC50) was less than 1000 nM.

Turning to `OCc1cn(-c2ncc(OCc3c(Cl)ccc(F)c3Cl)cn2)nn1`, the “CFTR R1162X ACTIVITY Fold 10 μM G-418” value is listed as “C′ (C′ = <5X)” and the EC50 was 1000 to 10000 nM.

Turning to `OCc1cn(-c2ncc(OCc3c(Cl)ccc(F)c3Cl)cn2)cn1`, the “CFTR R1162X ACTIVITY Fold 10 μM G-418” value is given as “C′ (C′ = <5X)” and the EC50 was less than 1000 nM.

On to `OCc1cn(-c2ncc(OCc3c(Cl)cc(F)cc3Cl)cn2)cn1`, for which the “CFTR R1162X ACTIVITY Fold 10 μM G-418” value was “C′ (C′ = <5X)” and the concentration for a half-maximal effect (EC50) is 1000 to 10000 nM.

In the case of `[2H]C([2H])(O)c1ccn(-c2ncc(OC([2H])([2H])c3c(Cl)cccc3Cl)cn2)n1`, the “CFTR R1162X ACTIVITY Fold 10 μM G-418” value is given as “C′ (C′ = <5X)” and the EC50 is 1000 to 10000 nM.

Consider `Cc1cccc(C(F)(F)F)c1COc1cnc(-n2ncc(CO)n2)nc1`, for which the “CFTR R1162X ACTIVITY Fold 10 μM G-418” value was “C′ (C′ = <5X)” and the EC50 is less than 1000 nM.

For the compound `OCc1cnn(-c2ncc(OCc3c(Cl)ccc(F)c3Cl)cn2)n1`, the “CFTR R1162X ACTIVITY Fold 10 μM G-418” value was “C′ (C′ = <5X)” and the EC50 was less than 1000 nM.

With `O=C1N[C@H](CO)CN1c1ccc(OCc2c(Cl)cccc2C(F)(F)F)cn1`, the “CFTR R1162X ACTIVITY Fold 10 μM G-418” value was “C′ (C′ = <5X)” and the EC50 was less than 1000 nM.

On to `CCc1cccc(C(F)(F)F)c1COc1cnc(N2C[C@@H](CO)NC2=O)nc1`, for which the “CFTR R1162X ACTIVITY Fold 10 μM G-418” value was “C′ (C′ = <5X)” and the EC50 lay in the range of 1000 to 10000 nM.

Turning to `O=C1N[C@H](CO)CN1c1ccc(OCc2c(C(F)(F)F)cccc2C(F)(F)F)cn1`, the “CFTR R1162X ACTIVITY Fold 10 μM G-418” value is “C′ (C′ = <5X)” and the EC50 is less than 1000 nM.
